The values that follow are results of earlier work, collected in patent US5709992A, “Method for disinfecting red blood cells” (priority 1995, dated 1998).

This data set concerns the target erythrocyte glutathione (GSH) peroxidase (Homo sapiens, UniProt P07203). The settings on record: read-out: Km (peroxide), effective at very low concentrations of peroxide.

erythrocyte glutathione (GSH) peroxidase, sequence (P07203 whole entry): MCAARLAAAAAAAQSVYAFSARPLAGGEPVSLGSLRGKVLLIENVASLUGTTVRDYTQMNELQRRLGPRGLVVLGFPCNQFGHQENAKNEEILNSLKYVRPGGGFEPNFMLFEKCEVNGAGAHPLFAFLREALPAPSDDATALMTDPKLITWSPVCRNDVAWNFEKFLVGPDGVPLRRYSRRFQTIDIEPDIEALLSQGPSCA

Regarding `OO` [peroxide, hydrogen peroxide], the Km is 1000 nM.
